These results are taken from patent publication US20250368649A1, “TETRAHYDROPYRIDOPYRIMIDINE PAN-KRAS INHIBITORS” (Mirati Therapeutics, Inc., priority 2022, published 2025).

One assay concerns the target KRas WT (Homo sapiens, UniProt P01116). The assay can be described thus: KRas binding assay (TR-FRET displacement), KRas WT. The conditions noted are these: TR-FRET displacement.
A further assay has as its target KRas G12S (Homo sapiens, UniProt P01116, G12S). Format: binding. The conditions noted are these: TR-FRET displacement, read-out: Binding to KRas (IC50 nM) G12S. A general note: Time-resolved FRET reads energy transfer from a long-lived donor to a nearby acceptor.
The target of a further assay is KRas G12D (Homo sapiens, UniProt P01116, G12D). Kind of assay: biochemical. As to conditions: Binding to KRas (IC50 nM) G12D, TR-FRET displacement, KRas G12D.
Another assay concerns the target KRas G12A (Homo sapiens, UniProt P01116, G12A). Type of assay: binding. The conditions noted are these: TR-FRET displacement, read-out: Binding to KRas (IC50 nM) G12A.
In the next assay the target is KRas Q61H (Homo sapiens, UniProt P01116, Q61H). Kind of assay: KRas binding assay (TR-FRET displacement), KRas Q61H. The conditions noted are these: TR-FRET displacement.
A further assay concerns the target KRas G12V (Homo sapiens, UniProt P01116, G12V). The assay can be described thus: biochemical. As to conditions: Binding to KRas (IC50 nM) G12V, TR-FRET displacement, KRas G12V.
In the next assay the target is KRas G12C (Homo sapiens, UniProt P01116, G12C). Format: binding. As to conditions: TR-FRET displacement, read-out: Binding to KRas (IC50 nM) G12C.
For the next assay, the target named is KRas G13D (Homo sapiens, UniProt P01116, G13D). Type of assay: binding. As to conditions: TR-FRET displacement, read-out: Binding to KRas (IC50 nM) G13D.
Sequence of KRas G13D (P01116 1-169 isoform P01116-2 G13D): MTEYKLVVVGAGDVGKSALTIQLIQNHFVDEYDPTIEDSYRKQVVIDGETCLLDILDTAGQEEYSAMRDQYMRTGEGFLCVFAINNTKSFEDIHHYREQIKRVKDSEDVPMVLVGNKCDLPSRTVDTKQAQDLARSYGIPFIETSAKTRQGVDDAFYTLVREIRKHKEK

Sequence of KRas G12A (P01116 1-169 isoform P01116-2 G12A): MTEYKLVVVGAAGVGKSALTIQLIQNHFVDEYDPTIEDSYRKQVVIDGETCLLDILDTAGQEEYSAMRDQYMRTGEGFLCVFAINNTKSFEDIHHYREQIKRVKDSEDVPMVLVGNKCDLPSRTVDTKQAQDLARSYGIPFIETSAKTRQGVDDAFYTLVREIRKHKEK
Sequence of KRas Q61H (P01116 1-169 isoform P01116-2 Q61H): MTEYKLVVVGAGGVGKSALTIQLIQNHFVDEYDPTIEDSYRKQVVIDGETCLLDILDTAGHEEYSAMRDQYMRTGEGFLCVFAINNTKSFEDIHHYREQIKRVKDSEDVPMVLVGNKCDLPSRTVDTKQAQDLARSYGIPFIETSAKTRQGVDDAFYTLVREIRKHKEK
Sequence of KRas WT (P01116 1-169 isoform P01116-2): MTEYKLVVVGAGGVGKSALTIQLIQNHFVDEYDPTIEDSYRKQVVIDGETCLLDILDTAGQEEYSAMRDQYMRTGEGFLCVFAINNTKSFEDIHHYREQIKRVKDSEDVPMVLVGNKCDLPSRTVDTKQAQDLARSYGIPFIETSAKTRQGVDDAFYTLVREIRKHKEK
Sequence of KRas G12D (P01116 1-169 isoform P01116-2 G12D): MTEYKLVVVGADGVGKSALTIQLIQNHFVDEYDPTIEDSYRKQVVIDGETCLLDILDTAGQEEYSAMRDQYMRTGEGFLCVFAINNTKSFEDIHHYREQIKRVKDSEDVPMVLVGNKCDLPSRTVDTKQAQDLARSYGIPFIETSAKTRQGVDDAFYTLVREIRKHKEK
Sequence of KRas G12S (P01116 1-169 isoform P01116-2 G12S): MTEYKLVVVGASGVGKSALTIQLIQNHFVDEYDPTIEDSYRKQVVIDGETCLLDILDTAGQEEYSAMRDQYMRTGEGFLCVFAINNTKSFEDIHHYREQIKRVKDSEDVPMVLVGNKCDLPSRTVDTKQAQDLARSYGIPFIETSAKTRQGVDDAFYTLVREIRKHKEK
Sequence of KRas G12V (P01116 1-169 isoform P01116-2 G12V): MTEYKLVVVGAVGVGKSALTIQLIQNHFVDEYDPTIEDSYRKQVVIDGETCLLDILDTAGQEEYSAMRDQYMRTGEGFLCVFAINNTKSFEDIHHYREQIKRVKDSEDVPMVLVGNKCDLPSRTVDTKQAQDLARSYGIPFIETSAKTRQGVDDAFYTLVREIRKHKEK
Sequence of KRas G12C (P01116 1-169 isoform P01116-2 G12C): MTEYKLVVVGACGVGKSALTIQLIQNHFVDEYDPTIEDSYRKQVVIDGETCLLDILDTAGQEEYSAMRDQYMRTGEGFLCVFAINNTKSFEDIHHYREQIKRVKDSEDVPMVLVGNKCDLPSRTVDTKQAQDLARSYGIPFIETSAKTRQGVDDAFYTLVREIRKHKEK

On to `CCc1cccc2cccc(N3CCc4c(nc(OCC5(CN(C)C)CC5)nc4N4CCCC(Cn5cc(C(=O)NC)nn5)C4)C3)c12` (stereo not drawn) [Example 528, 1-((1-(2-((1-((dimethylamino)methyl)cyclopropyl)methoxy)-7-(8-ethylnaphthalen-1-yl)-5,6,7,8-tetrahydropyrido[3,4-d]pyrimidin-4-yl)piperidin-3-yl)methyl)-N-methyl-1H-1,2,3-triazole-4-carboxamide], for which the half-inhibitory concentration (IC50) on KRas WT was 8290 nM; on KRas G12S it was 11700 nM; on KRas G12D, 6290 nM; at KRas G12A, 10500 nM; on KRas Q61H, 7520 nM; at KRas G12V it was 13600 nM. The IC50 came to 13500 nM at KRas G12C and 7930 nM at KRas G13D.
In the case of `CCc1cccc2cccc(N3CCc4c(nc(OCC5(CN(C)C)CC5)nc4N(C)Cc4nnc5n4CCNC5=O)C3)c12` [Example 529, 3-(((2-((1-((dimethylamino)methyl)cyclopropyl)methoxy)-7-(8-ethylnaphthalen-1-yl)-5,6,7,8-tetrahydropyrido[3,4-d]pyrimidin-4-yl)(methyl)amino)methyl)-6,7-dihydro-[1,2,4]triazolo[4,3-a]pyrazin-8(5H)-one], the IC50 at KRas WT turned out to be 2000 nM; at KRas G12S, 1060 nM; at KRas G12D it was 6570 nM; on KRas G12A it was 1380 nM; on KRas Q61H, 1410 nM; on KRas G12V it was 3000 nM. Moreover, the half-maximal inhibitory concentration (IC50) worked out at 1200 nM at KRas G12C and 2110 nM at KRas G13D.
On to `CCc1cccc2cccc(N3CCc4c(nc(OCC5(CN(C)C)CC5)nc4NCc4nc(-c5ccncc5)no4)C3)c12` [Example 530, 2-((1-((dimethylamino)methyl)cyclopropyl)methoxy)-7-(8-ethylnaphthalen-1-yl)-N-((3-(pyridin-4-yl)-1,2,4-oxadiazol-5-yl)methyl)-5,6,7,8-tetrahydropyrido[3,4-d]pyrimidin-4-amine], for which the IC50 at KRas WT came out at 2660 nM; on KRas G12S, 1070 nM; on KRas G12D it was 6680 nM; on KRas G12A, 1920 nM; on KRas Q61H, 3080 nM; on KRas G12V, 7530 nM. In addition, the IC50 at KRas G12C was 1030 nM; on KRas G13D, 3470 nM.
Consider `CCc1cccc2cccc(N3CCc4c(nc(OCC5(CN(C)C)CC5)nc4NCc4nnc(C5CCCO5)[nH]4)C3)c12` (stereo not drawn) [Example 531, 2-((1-((dimethylamino)methyl)cyclopropyl)methoxy)-7-(8-ethylnaphthalen-1-yl)-N-((5-(tetrahydrofuran-2-yl)-4H-1,2,4-triazol-3-yl)methyl)-5,6,7,8-tetrahydropyrido[3,4-d]pyrimidin-4-amine], for which the concentration for half-maximal inhibition (IC50) on KRas WT came out at 17000 nM; on KRas G12S it was 19900 nM; at KRas G12D, 6830 nM; on KRas G12A, 17200 nM; at KRas Q61H, 22400 nM; on KRas G12V, 5700 nM. For the same compound, the half-inhibitory concentration (IC50) on KRas G12C was found to be 9540 nM; at KRas G13D, 24900 nM.
Take `CCc1cccc2cccc(N3CCc4c(nc(OCC5(CN(C)C)CC5)nc4N4CCOC(c5n[nH]c(CO)n5)C4)C3)c12` (stereo not drawn) [Example 532, (3-(4-(2-((1-((dimethylamino)methyl)cyclopropyl)methoxy)-7-(8-ethylnaphthalen-1-yl)-5,6,7,8-tetrahydropyrido[3,4-d]pyrimidin-4-yl)morpholin-2-yl)-1H-1,2,4-triazol-5-yl)methanol]: the IC50 on KRas WT was found to be 910 nM; at KRas G12S, 700 nM; on KRas G12D it was 7260 nM; at KRas G12A, 649 nM; at KRas Q61H, 901 nM; at KRas G12V, 756 nM. The results for the concentration for half-maximal inhibition (IC50) on KRas G12C and on KRas G13D were 370 nM and 1150 nM, respectively.
With `CCc1cccc2cccc(N3CCc4c(nc(OCC5(CN(C)C)CC5)nc4NCc4nnnn4C4CCC4)C3)c12` [Example 533, N-((1-cyclobutyl-1H-tetrazol-5-yl)methyl)-2-((1-((dimethylamino)methyl)cyclopropyl)methoxy)-7-(8-ethylnaphthalen-1-yl)-5,6,7,8-tetrahydropyrido[3,4-d]pyrimidin-4-amine], the IC50 on KRas WT worked out at 7620 nM; at KRas G12S, 4920 nM; at KRas G12D it was 7360 nM; at KRas G12A it was 5970 nM; at KRas Q61H, 9980 nM; on KRas G12V, 2680 nM. For the same compound, the figures for the IC50 at KRas G12C and at KRas G13D were 3860 nM and 12300 nM, respectively.
With `CCc1cccc2cccc(N3CCc4c(nc(OCC5(CN(C)C)CC5)nc4N4Cc5cn[nH]c5CC(C)C4)C3)c12` (stereo not drawn) [Example 534, 1-(1-(((7-(8-ethylnaphthalen-1-yl)-4-(7-methyl-4,6,7,8-tetrahydropyrazolo[4,3-c]azepin-5(1H)-yl)-5,6,7,8-tetrahydropyrido[3,4-d]pyrimidin-2-yl)oxy)methyl)cyclopropyl)-N,N-dimethylmethanamine], the 50% inhibitory concentration (IC50) is 12100 nM on KRas WT; 9330 nM on KRas G12S; 7370 nM on KRas G12D; 9380 nM on KRas G12A; 14600 nM at KRas Q61H; 3540 nM at KRas G12V. Moreover, the results for the IC50 at KRas G12C and at KRas G13D were 4900 nM and 18200 nM, respectively.
As to `CCc1cccc2cccc(N3CCc4c(nc(OCC5(CN(C)C)CC5)nc4N4CCCC(n5ccc(C)n5)C4)C3)c12` (stereo not drawn) [Example 535, 1-(1-(((7-(8-ethylnaphthalen-1-yl)-4-(3-(3-methyl-1H-pyrazol-1-yl)piperidin-1-yl)-5,6,7,8-tetrahydropyrido[3,4-d]pyrimidin-2-yl)oxy)methyl)cyclopropyl)-N,N-dimethylmethanamine], the IC50 at KRas WT is 5320 nM; at KRas G12S, 5060 nM; at KRas G12D, 7570 nM; at KRas G12A it was 2980 nM; on KRas Q61H it was 6460 nM; at KRas G12V it was 4710 nM. In addition, the values for the IC50 at KRas G12C and on KRas G13D were 1830 nM and 6190 nM, respectively.
On to `CCc1cccc2cccc(N3CCc4c(nc(OCC5(CN(C)C)CC5)nc4N4CCN(C(=O)c5c[nH]c(=O)[nH]5)CC4)C3)c12` [Example 536, 4-(4-(2-((1-((dimethylamino)methyl)cyclopropyl)methoxy)-7-(8-ethylnaphthalen-1-yl)-5,6,7,8-tetrahydropyrido[3,4-d]pyrimidin-4-yl)piperazine-1-carbonyl)-1,3-dihydro-2H-imidazol-2-one], for which the IC50 at KRas WT stood at 3050 nM; at KRas G12S it was 7720 nM; at KRas G12D, 7950 nM; at KRas G12A, 4690 nM; at KRas Q61H it was 2170 nM; on KRas G12V, 3020 nM. Besides, the IC50 stood at 4650 nM at KRas G12C and 3080 nM on KRas G13D.
With `CCc1cccc2cccc(N3CCc4c(nc(OCC5(CN(C)C)CC5)nc4N(C)Cc4nnnn4C)C3)c12` [Example 537, 2-((1-((dimethylamino)methyl)cyclopropyl)methoxy)-7-(8-ethylnaphthalen-1-yl)-N-methyl-N-((1-methyl-1H-tetrazol-5-yl)methyl)-5,6,7,8-tetrahydropyrido[3,4-d]pyrimidin-4-amine], the 50% inhibitory concentration (IC50) was 26700 nM on KRas WT; 5660 nM on KRas G12S; 8520 nM on KRas G12D; 43500 nM at KRas G12A; > 100000 nM on KRas Q61H; 3180 nM on KRas G12V. For the same compound, the IC50 on KRas G12C was 3700 nM; at KRas G13D, > 100000 nM.
In the case of `CCc1cccc2cccc(N3CCc4c(nc(OCC5(CN(C)C)CC5)nc4N(C)Cc4nnc5n4CCOC5)C3)c12` [Example 538, N-((5,6-dihydro-8H-[1,2,4]triazolo[3,4-c][1,4]oxazin-3-yl)methyl)-2-((1-((dimethylamino)methyl)cyclopropyl)methoxy)-7-(8-ethylnaphthalen-1-yl)-N-methyl-5,6,7,8-tetrahydropyrido[3,4-d]pyrimidin-4-amine], the 50% inhibitory concentration (IC50) on KRas WT came out at 3000 nM; on KRas G12S it was 2780 nM; on KRas G12D, 9040 nM; at KRas G12A, 2530 nM; on KRas Q61H, 4350 nM; on KRas G12V, 1860 nM. Further, the concentration for half-maximal inhibition (IC50) amounted to 1330 nM on KRas G12C and 4360 nM on KRas G13D.
For `CCc1cccc2cccc(N3CCc4c(nc(OCC5(CN(C)C)CC5)nc4NCc4cc(CO)[nH]n4)C3)c12` [Example 539, (3-(((2-((1-((dimethylamino)methyl)cyclopropyl)methoxy)-7-(8-ethylnaphthalen-1-yl)-5,6,7,8-tetrahydropyrido[3,4-d]pyrimidin-4-yl)amino)methyl)-1H-pyrazol-5-yl)methanol], the half-inhibitory concentration (IC50) came out at 19900 nM at KRas WT; 20700 nM at KRas G12S; 9320 nM on KRas G12D; 17100 nM at KRas G12A; 41300 nM on KRas Q61H; 5880 nM at KRas G12V. Also, the results for the IC50 on KRas G12C and on KRas G13D were 8970 nM and 42200 nM, respectively.

As a reminder, the IC50 is the concentration that gives 50% inhibition.
